Residues, ends and D or L forms follow the SMILES beside them.
Columns and labels:
[1] = Circular dichroism spectroscopy; type: physicochemical; settings: 1 mg/ml in phosphate buffered saline
Experimental: The conformational properties of the polypeptides were investigated to elucidate any secondary structure that might be necessary for polypeptide immunoreaction with human anti-EBNA antibodies. The polypeptides were dissolved at a concentration of 1 mg/ml in phosphate-buffered saline (PBS). Spectra were taken using 1 ml samples in a Cary 61 spectropolarimeter (Cary Instruments, Applied Physics Corp., Monrovia, Calif.) interfaced and automated with a Digital Equipment Corporation 11/02 computer (Digital Equipment Corporation, Maynard, Mass.).

anti-EBNA antibodies = test: ELISA with polypeptide as solid phase antigen, anti-polypeptide activity of sera (OD405); type: binding, human; settings: for Reaction of VCA+ sera with polypeptide: clinically normal VCA+ individuals, two dilutions; for Reaction of VCA- sera with polypeptide: panel of 19 VCA- sera; for Number of anti-EBNA positive sera positive against (bound to) polypeptide: 91 ACIF anti-EBNA positive sera, 1:20 dilution; for Titer of PSS patients versus normals: Progressive Systemic Schlerosis patients; for OD405 × 10^3 obtained with Patient Antibodies to peptide: serum 1:20
Experimental: Briefly, microtiter wells (Costar, #3590, Cambridge, MA) were typically coated with individual polypeptides as antigens by adding 100 microliters (ul) of BBS [10 millimoler (mM) sodium borate (pH 8.3), 150 mM NaCl] containing polypeptide at a concentration of 10 micrograms per milliliter (ug/ml). Contact between the wells and antigen-containing solution was maintained for a predetermined time, typically 15 minutes, and at 20 degrees C., to form an antigen-coated solid phase. The solid and liquid phases were separated and the wells were washed three times with BBS.
Non-specific binding sites were blocked by admixing 200 microliters of 1% bovine serum albumin (BSA) in each well to form another solid/liquid phase admixture, and maintaining that solid/liquid phase admixture for 30 minutes, at 20 degrees C. The phases were separated and excess, unbound BSA was removed by washing three times with BBS.
The antibodies in human sera that immunoreacted with an adsored polypeptide were detected using an indicating means comprising alkaline phosphatase-conjugated goat anti-human Ig antibody (Tago, Burlington, Calif.). The antibodies in rabbit sera that immunoreacted with an adsorbed polypeptide were detected using an indicating means comprising alkaline phosphatase-conjugated goat anti-rabbit Ig antibody (Kirkegard & Perry Laboratories, Inc., Gaithersburg, MD). In either instance, 100 microliters of the indicating antibody diluted 1:300 in BBS were added per well to form a further solid/liquid phase composition. This solid-liquid phase composition was maintained for a predetermined time, one hour, for the formation of a reaction product between the human antibodies bound to the solid phase and the indicating means, and at 20 degrees C. The phases were separated, and the solid phase was washed 3 times with BBS.
Alkaline phosphatase-conjugated antibody bound to polypeptide specific antibody was detected by spectrophotometrically measuring the enzymatic hydrolysis of p-nitrophenyl phosphate to p-nitrophenol. Briefly, 100 microliters of p-nitrophenyl phosphate [1 milligram per milliliter in 2 mM MgCl 2, (pH 9.8), 50 mM sodium carbonate] were added to each well. The enzymatic reaction was allowed to proceed 1 hour and then the optical density at 405 nm was determined in a [sequence] spectrophotometer available from Flow Laboratories, Inglewood, Calif.

[2] = tested on: rabbit anti-polypeptide antibody to polypeptide P62; test: Competition ELISA with rabbit anti-polypeptide P62 antibody on solid phase P62; type: binding; settings: antibody first incubated with competing polypeptide
Experimental: Anti-peptide antibody binding and inhibition studies were carried out by an enzyme-linked immunosorbent assay (ELISA) as described below.
Contact between the wells and antigen-containing solution was maintained for a predetermined time, typically 15 minutes, and at 20 degrees C., to form an antigen-coated solid phase. The solid and liquid phases were separated and the wells were washed three times with BBS.
Rabbit and human sera (body sample aliquots) were assayed for anti-polypeptide activity by adding 100 microliters of a serum diluted 1:20 in BBS per well to form a solid/liquid phase composition. Contact between the diluted sera and the antigen-coated solid phase was maintained for a predetermined time such as 1 hour, and at 20 degrees C., for an immunoreactant to form. The solid and liquid phases were separated, and the solid phase; i.e., antigen-coated, immunoreactant-containing wells, was then washed three times with BBS.

Row | SMILES | Conformation by circular dichroism spectrum [1] | Reaction of VCA+ sera with polypeptide (anti-EBNA antibodies) | Reaction of VCA- sera with polypeptide (anti-EBNA antibodies) | Inhibition of binding of anti-polypeptide P62 to polypeptide P62 in the solid phase [2] [%] | Number of anti-EBNA positive sera positive against (bound to) polypeptide (anti-EBNA antibodies) | Titer of PSS patients versus normals (anti-EBNA antibodies) | OD405 × 10^3 obtained with Patient Antibodies to peptide (anti-EBNA antibodies; MV post-mononucleosis) [OD405 × 10^3] | OD405 × 10^3 obtained with Patient Antibodies to peptide (anti-EBNA antibodies; MV pre-mononucleosis) [OD405 × 10^3] | OD405 × 10^3 obtained with Patient Antibodies to peptide (anti-EBNA antibodies; SB post-mononucleosis) [OD405 × 10^3] | OD405 × 10^3 obtained with Patient Antibodies to peptide (anti-EBNA antibodies; SB pre-mononucleosis) [OD405 × 10^3] | OD405 × 10^3 obtained with Patient Antibodies to peptide (anti-EBNA antibodies; VCA+ Normal 1) [OD405 × 10^3] | OD405 × 10^3 obtained with Patient Antibodies to peptide (anti-EBNA antibodies; VCA+ Normal 2) [OD405 × 10^3] | OD405 × 10^3 obtained with Patient Antibodies to peptide (anti-EBNA antibodies; VCA- Normals (n = 27), average ± one standard deviation) [OD405 × 10^3]
1 | C[C@H](NC(=O)CNC(=O)[C@@H]1CCCN1)C(=O)N1CCC[C@H]1C(=O)NCC(=O)NCC(=O)N[C@@H](CO)C(=O)NCC(=O)N[C@@H](CO)C(=O)NCC(=O)N1CCC[C@H]1C(=O)O [Polypeptide F13, H--Pro--Gly--Ala--Pro--Gly--Gly--Ser--Gly--Ser--Gly--Pro--OH] (H-PGAPGGSGSGP-OH) | random conformation | all of the VCA^+ individuals were positive | None of the VCA^- sera were found to react positively | – | – | – | – | – | – | – | – | – | –
2 | CC[C@H](C)[C@H](N)C(=O)N[C@@H](CCSC)C(=O)N[C@@H](CO)C(=O)N[C@@H](CC(=O)O)C(=O)N[C@@H](CCC(=O)O)C(=O)NCC(=O)N1CCC[C@H]1C(=O)NCC(=O)N[C@H](C(=O)NCC(=O)N[C@@H](CC(N)=O)C(=O)NCC(=O)N[C@@H](CC(C)C)C(=O)NCC(=O)N[C@@H](CCC(=O)O)C(=O)O)[C@@H](C)O [Polypeptide F12, H--Ile--Met--Ser--Asp--Glu--Gly--Pro--Gly--Thr--Gly--Asn--Gly--Leu--Gly--Glu--OH] (H-IMSDEGPGTGNGLGE-OH) | partial assumption of such conformation | all of the VCA^+ individuals were positive | None of the VCA^- sera were found to react positively | – | – | – | – | – | – | – | – | – | –
3 | C[C@H](NC(=O)CNC(=O)CNC(=O)[C@H](C)NC(=O)CNC(=O)[C@H](C)NC(=O)CNC(=O)[C@H](C)NC(=O)CNC(=O)[C@@H](NC(=O)CNC(=O)CNC(=O)[C@H](Cc1c[nH]cn1)NC(=O)[C@@H](NC(=O)CNC(=O)[C@@H](N)CCCCN)[C@@H](C)O)[C@@H](C)O)C(=O)NCC(=O)N[C@@H](C)C(=O)NCC(=O)O [Polypeptide P27, H--Lys--Gly--Thr--His--Gly--Gly--Thr--Gly--Ala--Gly--Ala--Gly--Ala--Gly--Gly--Ala--Gly--Ala--Gly--OH] (H-KGTHGGTGAGAGAGGAGAG-OH) | very similar spectra | all of the VCA^+ individuals were positive | None of the VCA^- sera were found to react positively | 36 | 91 | relatively higher average titer | 107 | 15 | 33 | 11 | 155 | 516 | 67 ± 23
4 | C[C@H](NC(=O)CNC(=O)CNC(=O)CNC(=O)[C@H](C)NC(=O)CNC(=O)[C@H](C)NC(=O)CNC(=O)CNC(=O)[C@H](C)NC(=O)CNC(=O)CNC(=O)[C@H](C)NC(=O)CNC(=O)CN)C(=O)NCC(=O)O [Polypeptide F14, H--Gly--Gly--Ala--Gly--Gly--Ala--Gly--Gly--Ala--Gly--Ala--Gly--Gly--Gly--Ala--Gly--OH] (H-GGAGGAGGAGAGGGAG-OH) | very similar spectra | all of the VCA^+ individuals were positive | None of the VCA^- sera were found to react positively | – | 91 | relatively higher average titer | – | – | – | – | – | – | –
5 | CSCC[C@H](NC(=O)[C@@H]1CCCN1C(=O)[C@H](CCCNC(=N)N)NC(=O)[C@H](CCCCN)NC(=O)[C@H](CCC(=O)O)NC(=O)CNC(=O)[C@H](CCCNC(=N)N)NC(=O)CNC(=O)[C@H](CCCNC(=N)N)NC(=O)CNC(=O)[C@H](CCCNC(=N)N)NC(=O)CNC(=O)[C@H](CCCNC(=N)N)NC(=O)[C@H](C)NC(=O)[C@@H](N)CCCNC(=N)N)C(=O)O [Polypeptide P89, H--Arg--Ala--Arg--Gly--Arg--Gly--Arg--Gly--Arg--Gly--Glu--Lys--Arg--Pro--Met--OH] (H-RARGRGRGRGEKRPM-OH) | – | – | – | – | – | – | 25 | 29 | 23 | 9 | 23 | 16 | –
6 | C[C@H](NC(=O)CN)C(=O)NCC(=O)NCC(=O)N[C@@H](C)C(=O)NCC(=O)N[C@@H](C)C(=O)NCC(=O)NCC(=O)NCC(=O)N[C@@H](C)C(=O)NCC(=O)NCC(=O)N[C@@H](C)C(=O)NCC(=O)NCC(=O)O [Polypeptide F15, H--Gly--Ala--Gly--Gly--Ala--Gly--Ala--Gly--Gly--Gly--Ala--Gly--Gly--Ala--Gly--Gly--OH] (H-GAGGAGAGGGAGGAGG-OH) | very similar spectra | all of the VCA^+ individuals were positive | None of the VCA^- sera were found to react positively | – | 91 | relatively higher average titer | – | – | – | – | – | – | –
7 | C[C@H](NC(=O)CNC(=O)CNC(=O)[C@H](C)NC(=O)CNC(=O)[C@H](C)NC(=O)CNC(=O)CNC(=O)[C@H](C)NC(=O)CNC(=O)[C@H](C)NC(=O)CNC(=O)CNC(=O)[C@H](C)NC(=O)CNC(=O)[C@H](C)NC(=O)CNC(=O)CN)C(=O)NCC(=O)N[C@@H](C)C(=O)NCC(=O)O [Polypeptide F16, H--Gly--Gly--Ala--Gly--Ala--Gly--Gly--Ala--Gly--Ala--Gly--Gly--Ala--Gly--Ala--Gly--Gly--Ala--Gly--Ala--Gly--OH] (H-GGAGAGGAGAGGAGAGGAGAG-OH) | – | all of the VCA^+ individuals were positive | None of the VCA^- sera were found to react positively | – | 91 | relatively higher average titer | – | – | – | – | – | – | –
